# Reference: ChEMBL document CHEMBL1201862, “PubChem BioAssay data set” (2004)
#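 Compound exposure: 48 hours, 5 concentrations, 96-well plates. GI50: concentration for 50% inhibition of growth.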 Active and inactive are the calls of the source. No stated cut-off is given here; in the data, active = GI50 up to about 1.1 µM and inactive = higher.
# Experiments:
# Test in all cases: inhibition of tumour cell growth, NCI panel, 48 h
# ACHN = system: ACHN
# HL-60 = system: HL-60
# Malme-3M = system: Malme-3M
# OVCAR-8 = system: OVCAR-8
# SF-268 = system: SF-268
# OVCAR-4 = system: OVCAR-4
# SN12C = system: SN12C
# XF498 = system: XF498
# LXFL 529 = system: LXFL 529
# OVCAR-3 = system: OVCAR-3
# SNB-19 = system: SNB-19
# SNB-78 = system: SNB-78
# K562 = system: K562
# NCI-H460 = system: NCI-H460
# SW-620 = system: SW-620
# EKVX = system: EKVX
# CCRF-CEM = system: CCRF-CEM
# SK-OV-3 = system: SK-OV-3
# CAKI-1 = system: CAKI-1
# SNB-75 = system: SNB-75
# SK-MEL-5 = system: SK-MEL-5
# KM12 = system: KM12
# UACC-257 = system: UACC-257
# M14 = system: M14
# LOX IMVI = system: LOX IMVI
# TK-10 = system: TK-10
# HOP-92 = system: HOP-92
# HCT-116 = system: HCT-116
# KM-20L2 = system: KM-20L2
# COLO 205 = system: COLO 205
# SF-295 = system: SF-295
# NCI-H522 = system: NCI-H522
# HCC 2998 = system: HCC 2998
# UO-31 = system: UO-31
# SK-MEL-2 = system: SK-MEL-2
# 786-0 = system: 786-0
# NCI-H23 = system: NCI-H23
# MOLT-4 = system: MOLT-4
# HCT-15 = system: HCT-15
# SR = system: SR
# IGROV-1 = system: IGROV-1
# HOP-62 = system: HOP-62
# DLD-1 = system: DLD-1
# RPMI-8226 = system: RPMI-8226
# SF-539 = system: SF-539
# RXF 393 = system: RXF 393
# M19-MEL = system: M19-MEL
# OVCAR-5 = system: OVCAR-5
# U-251 = system: U-251
# HOP-18 = system: HOP-18
# DMS-273 = system: DMS-273
# DMS-114 = system: DMS-114
# NCI-H226 = system: NCI-H226
# HT-29 = system: HT-29
# UACC-62 = system: UACC-62
# A549 = system: A549
# SK-MEL-28 = system: SK-MEL-28
# RXF 631 = system: RXF 631
# A498 = system: A498
smiles,measurement,setting,value
C/C=C/C#CC#C/C=C/C=C/C(O)CCO (centres undefined),GI50,ACHN,> 23.1 µM (inactive)
same,GI50,HL-60,> 18.1 µM (inactive)
same,GI50,Malme-3M,> 23.1 µM (inactive)
same,GI50,OVCAR-8,> 23.1 µM (inactive)
same,GI50,SF-268,> 23.1 µM (inactive)
same,GI50,OVCAR-4,> 23.1 µM (inactive)
same,GI50,SN12C,> 23.1 µM (inactive)
same,GI50,XF498,> 23.1 µM (inactive)
same,GI50,LXFL 529,> 23.1 µM (inactive)
same,GI50,OVCAR-3,> 23.1 µM (inactive)
same,GI50,SNB-19,> 23.1 µM (inactive)
same,GI50,SNB-78,> 23.1 µM (inactive)
same,GI50,K562,> 23.1 µM (inactive)
same,GI50,NCI-H460,> 23.1 µM (inactive)
same,GI50,SW-620,> 23.1 µM (inactive)
same,GI50,EKVX,> 23.1 µM (inactive)
same,GI50,CCRF-CEM,> 23.1 µM (inactive)
same,GI50,SK-OV-3,> 23.1 µM (inactive)
same,GI50,CAKI-1,> 23.1 µM (inactive)
same,GI50,SNB-75,17.7 µM (inactive)
same,GI50,SK-MEL-5,> 23.1 µM (inactive)
same,GI50,KM12,> 23.1 µM (inactive)
same,GI50,UACC-257,> 23.1 µM (inactive)
same,GI50,M14,> 23.1 µM (inactive)
same,GI50,LOX IMVI,> 23.1 µM (inactive)
same,GI50,TK-10,> 23.1 µM (inactive)
same,GI50,HOP-92,> 23.1 µM (inactive)
same,GI50,HCT-116,> 23.1 µM (inactive)
same,GI50,KM-20L2,> 23.1 µM (inactive)
same,GI50,COLO 205,> 23.1 µM (inactive)
same,GI50,SF-295,> 18.7 µM (inactive)
same,GI50,NCI-H522,> 23.1 µM (inactive)
same,GI50,HCC 2998,> 23.1 µM (inactive)
same,GI50,UO-31,> 23.1 µM (inactive)
same,GI50,SK-MEL-2,> 23.1 µM (inactive)
same,GI50,786-0,> 23.1 µM (inactive)
same,GI50,NCI-H23,> 23.1 µM (inactive)
same,GI50,MOLT-4,17.5 µM (inactive)
same,GI50,HCT-15,> 23.1 µM
same,GI50,SR,> 23.1 µM (inactive)
same,GI50,IGROV-1,> 23.1 µM (inactive)
same,GI50,HOP-62,> 23.1 µM (inactive)
same,GI50,DLD-1,> 23.1 µM (inactive)
same,GI50,RPMI-8226,> 23.1 µM (inactive)
same,GI50,SF-539,> 23.1 µM (inactive)
same,GI50,RXF 393,> 23.1 µM (inactive)
same,GI50,M19-MEL,> 23.1 µM (inactive)
same,GI50,OVCAR-5,> 23.1 µM (inactive)
same,GI50,U-251,> 23.1 µM (inactive)
same,GI50,HOP-18,> 23.1 µM (inactive)
same,GI50,DMS-273,> 23.1 µM (inactive)
same,GI50,DMS-114,> 23.1 µM (inactive)
same,GI50,NCI-H226,> 23.1 µM (inactive)
same,GI50,HT-29,> 23.1 µM (inactive)
same,GI50,UACC-62,> 23.1 µM (inactive)
same,GI50,A549,> 23.1 µM (inactive)
same,GI50,SK-MEL-28,> 23.1 µM (inactive)
CCOC1=C2N=C(C(CC)c3ccccc3F)N=C2C(=O)c2ccccc21 (centres undefined),GI50,ACHN,> 100 µM (inactive)
same,GI50,HL-60,> 100 µM (inactive)
same,GI50,Malme-3M,> 100 µM (inactive)
same,GI50,OVCAR-8,> 100 µM (inactive)
same,GI50,SF-268,> 100 µM (inactive)
same,GI50,OVCAR-4,> 100 µM (inactive)
same,GI50,SN12C,> 100 µM (inactive)
same,GI50,LXFL 529,> 100 µM (inactive)
same,GI50,OVCAR-3,> 100 µM (inactive)
same,GI50,SNB-19,> 100 µM (inactive)
same,GI50,K562,> 100 µM (inactive)
same,GI50,NCI-H460,> 100 µM (inactive)
same,GI50,SW-620,> 100 µM (inactive)
same,GI50,EKVX,> 100 µM (inactive)
same,GI50,CCRF-CEM,> 100 µM (inactive)
same,GI50,CAKI-1,> 100 µM (inactive)
same,GI50,SNB-75,25.4 µM (inactive)
same,GI50,KM12,> 100 µM (inactive)
same,GI50,UACC-257,> 100 µM (inactive)
same,GI50,M14,> 100 µM (inactive)
same,GI50,TK-10,3.27 µM (inactive)
same,GI50,HOP-92,95.7 µM (inactive)
same,GI50,HCT-116,> 100 µM (inactive)
same,GI50,KM-20L2,> 100 µM (inactive)
same,GI50,COLO 205,> 100 µM (inactive)
same,GI50,SF-295,> 100 µM (inactive)
same,GI50,NCI-H522,> 100 µM (inactive)
same,GI50,HCC 2998,> 100 µM (inactive)
same,GI50,UO-31,> 100 µM (inactive)
same,GI50,SK-MEL-2,> 100 µM (inactive)
same,GI50,786-0,> 100 µM (inactive)
same,GI50,NCI-H23,> 100 µM (inactive)
same,GI50,RXF 631,> 100 µM (inactive)
same,GI50,MOLT-4,24 µM (inactive)
same,GI50,HCT-15,> 100 µM
same,GI50,SR,> 100 µM (inactive)
same,GI50,HOP-62,> 100 µM (inactive)
same,GI50,RPMI-8226,> 100 µM (inactive)
same,GI50,SF-539,> 100 µM (inactive)
same,GI50,RXF 393,2.98 µM (inactive)
same,GI50,M19-MEL,> 100 µM (inactive)
same,GI50,U-251,8.45 µM (inactive)
same,GI50,DMS-273,> 100 µM (inactive)
same,GI50,DMS-114,> 100 µM (inactive)
same,GI50,NCI-H226,> 100 µM (inactive)
same,GI50,HT-29,> 100 µM (inactive)
same,GI50,UACC-62,> 100 µM (inactive)
same,GI50,A549,> 100 µM (inactive)
same,GI50,SK-MEL-28,> 100 µM (inactive)
NNC(=O)N/N=C1\C(=O)N(c2ccc(Cl)c(Cl)c2)C(=O)C(=O)C1c1nc2ccccc2s1 (centres undefined),GI50,ACHN,> 100 µM (inactive)
same,GI50,HL-60,> 100 µM (inactive)
same,GI50,Malme-3M,> 100 µM (inactive)
same,GI50,OVCAR-8,> 100 µM (inactive)
same,GI50,SF-268,> 100 µM (inactive)
same,GI50,OVCAR-4,> 100 µM (inactive)
same,GI50,SN12C,> 100 µM (inactive)
same,GI50,XF498,> 100 µM (inactive)
same,GI50,LXFL 529,> 100 µM (inactive)
same,GI50,OVCAR-3,> 100 µM (inactive)
same,GI50,SNB-19,> 100 µM (inactive)
same,GI50,SNB-78,> 100 µM (inactive)
same,GI50,NCI-H460,> 100 µM (inactive)
same,GI50,SW-620,> 100 µM (inactive)
same,GI50,EKVX,> 100 µM (inactive)
same,GI50,CCRF-CEM,50.2 µM (inactive)
same,GI50,SK-OV-3,> 100 µM (inactive)
same,GI50,CAKI-1,> 100 µM (inactive)
same,GI50,SNB-75,> 100 µM (inactive)
same,GI50,SK-MEL-5,> 100 µM (inactive)
same,GI50,KM12,> 100 µM (inactive)
same,GI50,UACC-257,> 100 µM (inactive)
same,GI50,M14,> 100 µM (inactive)
same,GI50,TK-10,> 100 µM (inactive)
same,GI50,HOP-92,> 100 µM (inactive)
same,GI50,HCT-116,> 100 µM (inactive)
same,GI50,KM-20L2,> 100 µM (inactive)
same,GI50,COLO 205,> 100 µM (inactive)
same,GI50,SF-295,> 100 µM (inactive)
same,GI50,NCI-H522,> 100 µM (inactive)
same,GI50,HCC 2998,> 100 µM (inactive)
same,GI50,UO-31,> 100 µM (inactive)
same,GI50,SK-MEL-2,> 100 µM (inactive)
same,GI50,786-0,> 100 µM (inactive)
same,GI50,NCI-H23,> 100 µM (inactive)
same,GI50,MOLT-4,69.3 µM (inactive)
same,GI50,HCT-15,> 100 µM
same,GI50,SR,89.9 µM (inactive)
same,GI50,IGROV-1,> 100 µM (inactive)
same,GI50,A498,> 100 µM (inactive)
same,GI50,HOP-62,> 100 µM (inactive)
same,GI50,DLD-1,> 100 µM (inactive)
same,GI50,SF-539,> 100 µM (inactive)
same,GI50,RXF 393,38.5 µM (inactive)
same,GI50,U-251,> 100 µM (inactive)
same,GI50,HOP-18,> 100 µM (inactive)
same,GI50,DMS-273,> 100 µM (inactive)
same,GI50,DMS-114,> 100 µM (inactive)
same,GI50,NCI-H226,> 100 µM (inactive)
same,GI50,HT-29,> 100 µM (inactive)
same,GI50,UACC-62,> 100 µM (inactive)
same,GI50,A549,> 100 µM (inactive)
same,GI50,SK-MEL-28,> 100 µM (inactive)
